Measured values taken from PMC6251811 (Acta Pharmaceutica Sinica. B, 2018).

Tests used:
Phospho-STAT1 (Tyr701) [1] = assay: Western blot of STAT1 phosphorylation in SH-SY5Y cells after IFN-α2a; type: cell-based, human; details: niclosamide 10 μmol/L (Fig. 6B)
Phospho-STAT1 (Tyr701) [2] = assay: Western blot of STAT1 phosphorylation in HEK-Blue IFNα/β cells after IFN-α2a; type: cell-based, human; details: niclosamide 10 μmol/L (Fig. 5B, Fig. S2)
IRF7 mRNA = IRF7 mRNA quantitative PCR in SH-SY5Y cells; type: cell-based, human; details: positive control niclosamide, IFN-α2a 1 h
STAT3 phosphorylation = details: concentrations below 10 μmol/L; cited from earlier work
[3] = system: type-I interferon signaling pathway; assay: SEAP reporter gene assay in HEK-Blue IFNα/β cells stimulated with IFN-α2a; type: cell-based; details: Homo sapiens

## O=C(Nc1ccc([N+](=O)[O-])cc1Cl)c1cc(Cl)ccc1O [niclosamide, Niclosamide]
Phospho-STAT1 (Tyr701) [1]
  effect on STAT1 phosphorylation: also inhibited STAT1 phosphorylation
Phospho-STAT1 (Tyr701) [2]
  effect on STAT1 phosphorylation: also inhibited STAT1 phosphorylation
IRF7 mRNA
  IRF7 level after compound plus IFN-α2a: 0.84±0.07 folds
STAT3 phosphorylation
  effect on STAT phosphorylation: only inhibit STAT3 phosphorylation
[3]
  IC50: 370 nM
